Publication PMC6466588, “Characterization and Antimicrobial Activity of Amphiphilic Peptide AP3 and Derivative Sequences” (Antibiotics, 2019)
No end group written: not given here.

Assays:
[1] = system: HEK-293 cells; test: Mammalian cell viability, MTT assay; format: cell-based, Human; details: HEK-293, MTT, 24 h, 37 °C, triplicate
Method: The cells were treated with five different concentrations of each peptide ranging from 0.0015 µM to 15 µM for a total of 24 h before viability measurements were performed.
Figure 6 Mammalian cell viability assay—Effects of AP3 peptides on HEK-293 cell viability assayed by MTT metabolic breakdown. A standard density of HEK-293 cells was incubated with serially diluted peptides for 24 h at 37 °C before the assay was performed. Percent viability was normalized to MTT breakdown observed in untreated controls. Color coding of the graph is AP3 (red), AP3K (blue), APX (purple), APX-17 (black), and APX-12 (green). All data represent the average of at least three replicates and error bars represent the standard deviation.
Cellular toxicity of specific peptides was determined by MTT ((3-(4,5-Dimethylthiazol-2-yl)-2,5-Diphenyltetrazolium Bromide)) assay. Human embryonic kidney (HEK) 293 cells with a lenti-CRE luciferase reporter gene were seeded in 96-well plates at a density of 1.5 × 10^4 cells per well and incubated with 5% CO2 at 37 °C for 24 h. Then, cells were treated with appropriate concentrations of peptides (0.0015–15 µM) and control for 24 h. After treatment for 24 h, 10 µL of MTT solution (5 mg MTT/mL PBS) was added to all wells and incubated for 4 h. Then, DMSO was added as a solubilizing agent and the absorbance was recorded at 540 nm. Each peptide concentration was performed in triplicate.

[2] = system: S. aureus ATCC25923; format: cell-based; details: ATCC25923, 18 h
Method: (§1) The antibacterial activities of each peptide were determined against various Gram-negative and Gram-positive bacteria using minimum inhibitory concentration (MIC) assays. The MIC is defined as the lowest concentration of peptide that prevents growth of bacteria using the optical density at 600 nm under standard growth conditions.
(§2) Bacteria were streaked from frozen stocks onto Difco LB-miller agar (BD, Franklin Lakes, NJ, USA) plates (E. coli MG1655 ATCC 47076, E. coli D31 [34], S. aureus ATCC25923, P. aeruginosa ATCC10145, K. pneumoniae 700603). Streaked plates were grown overnight at 37 °C and subsequently stored at 4 °C.
(§3) To prepare overnight cultures, a single colony of each bacterial strain was added to LB broth (Difco) in sterile culture tubes. Tubes were placed in the shaking incubator at 37 °C overnight to allow for sufficient bacterial growth. After incubation, dilutions of the overnight culture were made in LB (1:100) or Muller-Hinton broth (Criterion) (1:250) for MIC assay protocols (Hardy Diagnostics, Santa Maria, CA, USA).
(§4) Minimal inhibitory concentrations (MIC) were determined for each peptide The MIC assay was set up by adding 10 µL of the peptide stock solutions to wells of a sterile 96-well plate to which […] of diluted bacterial culture was added. The final bacterial load was ~5.0 × 10^5 cfu/mL as calculated from the Optical Density^@ 600 nm (OD600) measurements of a log-phase culture. The assay plate was incubated at 37 °C for 18 h. Bacterial growth was assayed by absorbance at OD600 using Multiskan microplate reader (Thermo Fisher, Waltham, MA, USA). […] All MIC values are averages of at least triplicate samples.

[3] = system: E. coli; format: cell-based; details: 18 h
Method: as §1, §2, §3, §4

[4] = system: K. pneumoniae 700603; format: cell-based; details: 700603, 18 h
Method: as §1, §2, §3, §4

[5] = system: P. aeruginosa ATCC10145; format: cell-based; details: ATCC10145, 18 h
Method: as §1, §2, §3, §4

Substance | cytotoxicity, dead cells ([1]; 1.5 µM peptide) | cytotoxicity, dead cells ([1]; 15 µM peptide) | MIC [2] | MIC [3] | MIC [4] | MIC [5]
GWKTLLKKAEVKTVGKLALKHYL-NH2 [AP3K] | ~ 18% | ~ 40% | 2.32 µM | 9.3 µM | >9.30 µM | 0.29 µM
GWRTLLKKAEVKTVGKLALKHYL-NH2 [AP3] | ~ 18% |  | 4.15 µM | 8.3 µM | 4.15 µM | 
GYRTLLKKAEVKTVGKLALKHWL-NH2 [APX] |  |  | 15 µM | >15.0 µM | >15.0 µM | 15 µM
KKAEVKTVGKLALKHWL-NH2 [APX-17] |  |  | >8.00 µM | >8.00 µM | >8.00 µM | >8.00 µM
KTVGKLALKHWL-NH2 [APX-12] |  |  | >15.0 µM | >15.0 µM | >15.0 µM | >15.0 µM
